Results from the NIST ThermoML archive (doi:10.1021/acs.jced.9b00752).

Assay: mn = molality of the nth substance listed, in mol/kg
Settings: 100 kPa, Liquid, Vibrating tube method

N[C@@H](Cc1c[nH]c2ccccc12)C(=O)O [L-tryptophan] + O
mass density [kg/m3]
Settings | 273.65 K | 274.15 K | 274.65 K | 275.15 K | 275.65 K | 276.15 K | 276.65 K | 277.15 K | 277.65 K | 278.15 K
m1 = 0.0035 | 1000.09 | 1000.12 | 1000.14 | 1000.15 | 1000.17 | 1000.18 | 1000.18 | 1000.18 | 1000.18 | 1000.17
m1 = 0.009 | 1000.46 | 1000.48 | 1000.5 | 1000.52 | 1000.53 | 1000.54 | 1000.54 | 1000.55 | 1000.54 | 1000.53
m1 = 0.0179 | 1001.04 | 1001.06 | 1001.08 | 1001.09 | 1001.11 | 1001.11 | 1001.12 | 1001.12 | 1001.11 | 1001.1
m1 = 0.0306 | 1001.86 | 1001.88 | 1001.9 | 1001.91 | 1001.92 | 1001.93 | 1001.93 | 1001.93 | 1001.92 | 1001.91
m1 = 0.0352 | 1002.16 | 1002.18 | 1002.2 | 1002.22 | 1002.23 | 1002.23 | 1002.23 | 1002.23 | 1002.22 | 1002.21
m1 = 0.0429 | 1002.66 | 1002.68 | 1002.7 | 1002.71 | 1002.72 | 1002.73 | 1002.72 | 1002.72 | 1002.72 | 1002.7
m1 = 0.0536 | 1003.36 | 1003.38 | 1003.39 | 1003.4 | 1003.41 | 1003.41 | 1003.41 | 1003.41 | 1003.4 | 1003.39
m1 = 0.0595 | 1003.74 | 1003.75 | 1003.77 | 1003.78 | 1003.79 | 1003.79 | 1003.78 | 1003.78 | 1003.77 | 1003.76
m1 = 0.0659 | 1004.14 | 1004.16 | 1004.17 | 1004.18 | 1004.19 | 1004.19 | 1004.19 | 1004.18 | 1004.17 | 1004.16
m1 = 0.0769 | 1004.85 | 1004.87 | 1004.88 | 1004.88 | 1004.89 | 1004.89 | 1004.88 | 1004.88 | 1004.87 | 1004.85
